Laboratory results published in US6645755B1, “VECTOR MODIFIED BY SEQUENCE CODING FOR A SEQUENCE OF AMINO ACIDS CONTAINED IN A MAMMALIAN PROTEIN HAVING THE BIOLOGICAL ACTIVITY OF A MEMBRANE RECEPTOR, EXPRESSION OF THIS SEQUENCE IN TRANSFORMED UNICELLULAR CULTURES BY MEANS OF THIS VECTOR, PROCEDURE FOR STUDYING LIGANDS RECOGNIZING THESE RECEPTORS” (Centre National de la Recherche Scientifique, priority 1988, dated 2003).
Read-outs that look alike come from different tables or passages of the source.

Columns and labels:
mamm. β2AR = settings: reference mammalian tissues; cited from earlier work
mamm. β1AR = settings: reference mammalian tissues, cited from earlier work; for mamm. β1/β2: Ki ratio
Huβ1AR [1] = assay: Competition binding against ICYP on E. coli expressing Huβ1AR (pSMLβ1); settings: ratio of Ki on Huβ1AR and Huβ2AR expressed in E. coli
Huβ2AR = Huβ2AR (Homo sapiens, UniProt P07550); assay: Competition binding against ICYP on E. coli expressing Huβ2AR (pSMLβ2)
Huβ1AR [2] = target: Huβ1AR (Homo sapiens, UniProt P08588); assay: Competition binding against ICYP on E. coli expressing Huβ1AR (pSMLβ1)
[3] = target: T1, human β2-adrenergic receptor (Homo sapiens, UniProt P07550); assay: cell-based; assay type: binding
T1 construct: extending from the NcoI site to the DraI site which contained the coding region for the human β2-adrenergic receptor; β-galactosidase (lacZ product of λgt11, fused at the EcoRI site near the 3' end of lacZ) (N); linker Asp-Asp-Pro (acid-cleavable) (N); expressed in transfected cells; host or cells: E. coli Y1089 lysogenized with recombinant λgt11

Chain of Huβ1AR (Homo sapiens, UniProt P08588) (P08588 58-377 limits assumed): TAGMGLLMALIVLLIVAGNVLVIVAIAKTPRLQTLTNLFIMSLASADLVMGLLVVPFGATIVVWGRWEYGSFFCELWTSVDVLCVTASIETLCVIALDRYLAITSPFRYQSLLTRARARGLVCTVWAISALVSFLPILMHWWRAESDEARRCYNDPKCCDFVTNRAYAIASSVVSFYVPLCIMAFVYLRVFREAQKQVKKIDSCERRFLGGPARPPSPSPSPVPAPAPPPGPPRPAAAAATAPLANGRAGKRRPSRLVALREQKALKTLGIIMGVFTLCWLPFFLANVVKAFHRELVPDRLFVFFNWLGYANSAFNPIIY

Ki (Huβ2AR; read-out: Ki E. coli Huβ2AR, 10 pM ICYP as radioligand, Ki calculated from IC50) [nM]	Compound	Ki (mamm. β2AR) [nM]	mamm. β1/β2 (mamm. β1AR)	Ki (mamm. β1AR) [nM]	E. coli Kiβ1/Kiβ2 (Huβ1AR [1])	Ki (Huβ1AR [2]; read-out: Ki E. coli Huβ1AR, 10 pM ICYP as radioligand, Ki calculated from IC50) [nM]	Ki [3] [nM]	Ki (Huβ2AR) [nM]	Ki (Huβ1AR [2]) [nM]
–	CS(=O)(=O)O.Cn1cc(C(F)(F)F)nc1-c1ccc(OCC(O)CNCCOc2ccc(O)c(C(N)=O)c2)cc1 (centres unmarked) [CGP 20712-A]	982	0,003	3.24	0,0005	–	–	–	–
–	Cc1ccc(OCC(O)C(C)NC(C)C)c2c1CCC2 (centres unmarked) [ICI 118,551]	–	130	86	–	–	–	–	–
3.83	OC(CNCC(O)C1CCc2cc(F)ccc2O1)C1CCc2cc(F)ccc2O1 (centres unmarked) [R67555]	46	0,02	0.9	–	–	–	–	–
–	CC(C)(C)NCC(O)c1cc(Cl)c(N)c(Cl)c1 (centres unmarked) [clembuterol]	14	5,1	71	–	37	–	–	–
–	CNC[C@H](O)c1ccc(O)c(O)c1 [epinephrine]	403	4,7	1900	–	–	–	–	–
–	NC[C@H](O)c1ccc(O)c(O)c1 [norepinephrine]	1880	1,49	2800	–	–	–	–	–
–	CCC(NC(C)C)C(O)c1ccc(O)c2[nH]c(=O)ccc12 (centres unmarked) [procaterol]	–	–	–	84,1	–	40 ± 8	55.3	4650
–	CC(C)NCC(O)COc1cccc2ccccc12 (centres unmarked) [propranolol]	–	5,5	–	–	–	–	–	–
–	CC(C)(Cc1ccccc1)NCC(O)c1ccc(O)c(NS(C)(=O)=O)c1 (centres unmarked) [zinterol]	21	8,1	170	18,4	–	–	9.14	168
–	(−) epinephrine	–	–	–	–	–	4700 ± 1400	–	–
